Reference: patent publication US8575107B2, “Clusterin derived peptide” (Compugen Ltd., priority 2008, dated 2013)

Experiments:
[1] = system: lung carcinoma cell line A549; assay: MTT assay, CGEN-CL1 and/or paclitaxel on A549 cells; type: cell-based, human; details: single agent
Method: (§1) 20 μl of MTT (3-(4,5-Dimethyl-2-thiazolyl)-2,5-diphenyl-2H-tetrazolium bromide) solution (Sigma Cat#M5655, lot#085k5322, 1 gr was dissolved in 200 ml H2O and filtered, giving a final concentration of 5 mg/ml) was added to each well and incubated for 4 hours at 37° C. after which the medium was vacuumed and 100 μl of DMSO was added to each well. Absorbance was measured in an ELISA reader at 492 nm.
(§2) A549, PC3 and MCF7 cells were seeded at 6000, 8000 and 10,000 cells per well respectively in 150 μl of media (DMEM medium+5% FBS) in 96 well plates.
(§3) Paclitaxel (Sigma T7402, Lot. 036k1217, Mw 853.9, 5 mg dissolved in 585 μl DMSO to a stock concentration of 10 mM, stored at −20° C.) and/or CGEN-CL1 (1 mg dissolved in 250 μl of sodium bi-carbonate to a stock concentration of 4 mg/ml) were added to the wells in 25 μl of medium (final volume of 200 μl) as detailed in Table 3. The relative growth was normalized to controls where neither paclitaxel nor CGEN-CL1 was added to wells.
(§4) An MTT assay was performed as described above in Example 2.

[2] = system: MCF-7 breast cancer cell lines; assay: MTT assay, CGEN-CL1 and/or paclitaxel on MCF-7 cells; type: cell-based
Method: as §1, §2, §3, §4

CC(=O)O[C@H]1C(=O)[C@@]2(C)[C@H]([C@H](OC(=O)c3ccccc3)[C@]3(O)C[C@H](OC(=O)[C@H](O)[C@@H](NC(=O)c4ccccc4)c4ccccc4)C(C)=C1C3(C)C)[C@]1(OC(C)=O)CO[C@@H]1C[C@@H]2O [Paclitaxel, reference compound]
maximal effect (inhibition) alone [1]: 50% | Relative Growth ([2]; Paclitaxel 2.25 nM alone): 0.88 | Relative Growth ([2]; Paclitaxel 30.00 nM alone): 0.49
